In paper PMC12494099, “Discovery and Characterization of Novel IKZF1/3 Glue Degraders against Multiple Hematological Cancer Cell Lines” (Oncology Research, 2025):
Like-named read-outs stand apart in the source and are kept apart here.

Legend:
[1] = Pharmacokinetic study in vivo; set-up: species or system BALB/c mice; conditions: mice; for MRT inf: read-out: MRT0-inf
Protocol: BALB/c mice weighing 19–21 g were procured from Beijing Vital River Laboratory Animal Technology Co., Ltd. (Beijing, China). The animals were housed under conditions of constant temperature and humidity, with a 12-h light-dark cycle for lighting. The mice had free access to water and food but were fasted for 12 h before intragastric administration. This study has been approved by the Animal Care and Use Committee Ethics Committee of the National Beijing Center for Drug Safety Evaluation and Research; the approval number is IACUC-DWZX-2024-P557.
Six male BALB/c mice were randomly assigned to two groups, with three mice in each group. MGD-C9 was administered via intravenous (i.v., 2 mg/kg in a solution of 10% DMSO, 2% Tween 80% and 88% H2O) and oral (p.o., 50 mg/kg in the same vehicle) routes to assess its pharmacokinetic (PK) characteristics. Blood samples (0.05 mL) were collected into heparinized tubes at pre-dose and at 0, 0.0833-, 0.25-, 0.5-, 1-, 2-, 4-, 6-, 8-, and 24 h post-administration. Plasma samples were obtained by centrifuging the blood for 10 min.
The plasma supernatant was then stored at −80°C and thawed at room temperature for subsequent analysis. For preparation, 10 μL of plasma was mixed with 10 μL working solution, followed by protein precipitation with 50 μL acetonitrile containing propranolol hydrochloride internal standard (50 ng/mL). After vortexing (1 min) and centrifugation (18,800× g, 10 min, 4°C), the supernatant was collected, diluted two-fold with 50% acetonitrile/water (v/v), and mixed. MGD-C9 plasma concentrations were quantified by LC-MS/MS using Analyst 1.5.1 (Applied Biosystem, Shanghai, China).
Automated peak integration was performed for atlas samples. The peak area ratio (sample/internal standard) was used for concentration regression analysis, applying linear regression with 1/X^2 weighting. Pharmacokinetic parameters (AUC, t1/2, MRT) across administration routes, and Cmax/Tmax after oral dosing, were calculated via non-compartmental analysis using WinNonlin v6.3 (Pharsight, Lawrenceville, GA, USA).
Experimental data were presented as “Mean ± SD” (n = 3).

[2] = target: IKZF2 (Homo sapiens, UniProt Q9UKS7); assay: MS-based quantitative proteomics in NCI-H929 cells; format: cell-based; set-up: endogenous in cells; host or cells: NCI-H929; conditions: NCI-H929, 10 μM, 4 h; not notably downregulated
Chain of IKZF2 (Q96SW2 whole entry partner): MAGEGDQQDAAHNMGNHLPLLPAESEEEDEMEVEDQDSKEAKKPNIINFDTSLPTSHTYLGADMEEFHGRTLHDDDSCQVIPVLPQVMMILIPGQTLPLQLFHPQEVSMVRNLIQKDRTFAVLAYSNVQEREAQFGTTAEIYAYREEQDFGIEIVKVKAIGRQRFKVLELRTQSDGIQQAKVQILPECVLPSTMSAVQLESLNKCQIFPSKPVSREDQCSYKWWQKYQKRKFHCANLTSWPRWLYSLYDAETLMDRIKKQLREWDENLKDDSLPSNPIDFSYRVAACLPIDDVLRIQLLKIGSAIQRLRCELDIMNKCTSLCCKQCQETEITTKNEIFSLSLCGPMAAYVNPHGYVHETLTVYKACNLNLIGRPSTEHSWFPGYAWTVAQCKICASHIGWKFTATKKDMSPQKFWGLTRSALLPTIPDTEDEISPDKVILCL
Chain of IKZF2 (Q16531 whole entry partner): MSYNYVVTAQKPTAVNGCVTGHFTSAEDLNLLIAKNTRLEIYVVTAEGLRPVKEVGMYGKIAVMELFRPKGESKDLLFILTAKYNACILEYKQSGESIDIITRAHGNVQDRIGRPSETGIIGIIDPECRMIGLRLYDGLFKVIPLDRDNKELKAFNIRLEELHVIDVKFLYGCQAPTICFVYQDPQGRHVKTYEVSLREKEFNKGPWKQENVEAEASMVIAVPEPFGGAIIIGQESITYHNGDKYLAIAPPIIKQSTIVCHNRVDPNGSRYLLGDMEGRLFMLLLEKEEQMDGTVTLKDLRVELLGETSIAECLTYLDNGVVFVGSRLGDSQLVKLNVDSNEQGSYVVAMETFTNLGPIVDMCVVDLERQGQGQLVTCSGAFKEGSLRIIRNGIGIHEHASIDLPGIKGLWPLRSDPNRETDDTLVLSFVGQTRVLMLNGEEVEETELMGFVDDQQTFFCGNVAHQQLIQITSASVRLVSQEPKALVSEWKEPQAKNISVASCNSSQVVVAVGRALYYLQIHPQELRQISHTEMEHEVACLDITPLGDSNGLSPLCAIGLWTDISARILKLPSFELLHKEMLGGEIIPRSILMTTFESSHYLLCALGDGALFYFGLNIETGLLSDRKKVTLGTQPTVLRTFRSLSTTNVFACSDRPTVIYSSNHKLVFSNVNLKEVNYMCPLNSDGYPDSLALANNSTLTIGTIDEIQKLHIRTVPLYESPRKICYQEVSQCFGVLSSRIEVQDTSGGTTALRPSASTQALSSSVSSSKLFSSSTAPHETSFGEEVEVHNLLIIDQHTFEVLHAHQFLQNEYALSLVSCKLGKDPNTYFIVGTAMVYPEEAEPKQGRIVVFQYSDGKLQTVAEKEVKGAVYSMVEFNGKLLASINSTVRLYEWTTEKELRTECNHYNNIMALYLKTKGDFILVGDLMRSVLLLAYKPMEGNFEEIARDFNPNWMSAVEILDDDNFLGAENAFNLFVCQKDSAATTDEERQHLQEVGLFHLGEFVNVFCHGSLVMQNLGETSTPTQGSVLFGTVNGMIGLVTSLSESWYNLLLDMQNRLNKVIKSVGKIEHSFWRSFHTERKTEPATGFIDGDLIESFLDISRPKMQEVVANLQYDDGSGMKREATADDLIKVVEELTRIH
Chain of IKZF2 (Q9UKS7 whole entry): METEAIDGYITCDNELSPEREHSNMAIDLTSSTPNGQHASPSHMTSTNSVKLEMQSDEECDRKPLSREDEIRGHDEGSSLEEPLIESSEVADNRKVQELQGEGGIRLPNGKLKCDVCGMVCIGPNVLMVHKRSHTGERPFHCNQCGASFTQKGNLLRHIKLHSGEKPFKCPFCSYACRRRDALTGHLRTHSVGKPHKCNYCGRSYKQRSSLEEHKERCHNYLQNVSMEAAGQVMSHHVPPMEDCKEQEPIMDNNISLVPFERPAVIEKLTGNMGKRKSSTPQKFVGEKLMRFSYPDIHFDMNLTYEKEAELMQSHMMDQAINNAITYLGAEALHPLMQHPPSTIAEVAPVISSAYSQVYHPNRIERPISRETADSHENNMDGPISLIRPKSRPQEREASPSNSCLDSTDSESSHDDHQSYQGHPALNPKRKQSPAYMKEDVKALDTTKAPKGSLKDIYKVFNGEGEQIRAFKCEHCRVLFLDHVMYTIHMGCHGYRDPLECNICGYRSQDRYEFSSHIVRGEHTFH
Protocol: NCI-H929 cells were treated with either 10 μM DMSO or 10 μM MGD-C9 for 4 h. Post-treatment, the cells were washed with PBS (pH = 7.2–7.4, 1×) and then lysed in 8M Urea (UA) (comprising 8M urea, 100 mM Tris-HCl, pH = 8.0). Subsequently, the cell lysate was subjected to centrifugation on a high-speed freezing microcentrifuge (#CF1524R; SCILOGEX, Meriden, CT, USA) at […], and the supernatant was collected. Subsequently, the collected supernatant was treated with 10 mM tris (2-carboxyethyl) phosphine hydrochloride (TCEP) to reduce it for 30 min. Following this, cysteine alkylation was performed using 50 mM 2-chloroacetamide (CAA) for an additional 30 min. The denatured proteins were then digested with trypsin (1 μg/μL) at an enzyme-to-protein ratio of 1:50 and incubated at 37°C overnight. […]
The peptide mixtures were analyzed using an EASY-nLC 1200 liquid chromatography system (Thermo Fisher Scientific, WLM, MA, USA) equipped with a custom-made 15 cm C18 column (150 μm ID, 1.9 μm particle size, 100 Å pore size). […] The peptide mixtures were then analyzed using a Q Exactive HF mass spectrometer (Thermo Fisher Scientific). […]
Label-free MS raw data were processed using MaxQuant (v2.4) against the UniProt Human database (https://www.uniprot.org/, downloaded May 2024; 20,434 entries). […] Protein groups output by MaxQuant were further analyzed in R (v4.2.1). […]

[3] = male, BALB/c, mouse, plasma, iv, 2 mg/kg
[4] = male, BALB/c, mouse, plasma, po, 50 mg/kg

Structure (SMILES): CN1CCN(Cc2cccc(C(=O)NC3CCC(=O)NC3=O)c2F)C(=O)C1 (stereo not shown) [MGD-C9, N-(2,6-dioxopiperidin-3-yl)-2-fluoro-3-((4-methyl-2-oxopiperazin-1-yl)methyl)benzamide]
- AUC(0-inf) [1, 3]: 1360 ± 190 ng·h/mL
- Cmax [1, 3]: 3690 ± 713 ng/mL
- half-life [1, 3]: 12 ± 4.2 min
- MRT inf ([1]; male, BALB/c, mouse, plasma, iv, i.v., 2 mg/kg): 15.6 ± 7.2 min
- Vd ([1]; male, BALB/c, mouse, plasma, iv, i.v., 2 mg/kg, read-out: Vz): 0.42 ± 0.14 L/kg
- bioavailability ([1]; male, BALB/c, mouse, plasma, oral, p.o. 50 mg/kg vs i.v. 2 mg/kg, read-out: F (oral bioavailability)): 33.5%
- Tmax [1, 4]: ~30 min
- AUC(0-inf) [1, 4]: 11400 ± 553 ng·h/mL
- Cmax [1, 4]: 5590 ± 222 ng/mL
- half-life [1, 4]: 53.4 ± 13.8 min
- MRT inf ([1]; male, BALB/c, mouse, plasma, po, p.o., 50 mg/kg): 90.6 ± 10.2 min
- Vz ([1]; p.o., 50 mg/kg): 5.62 ± 1.23 L/kg
- absolute [log2(fold change)] of IKZF2 [2]: less than 1
